# Reference: US8809344B2, “Compounds, compositions, and methods for control of hepatitis C viral infections” (priority 2008, dated 2014)
# What was measured:
# [1] = tested on: chimeric APV112 HCV (genotype 2a with genotype 1b NS4B amino acids 53 to 218); assay: HCV APV112 viral infectivity assay in Huh7.5 cells, 3′NTR RNA by realtime quantitative PCR; format: cell-based, hepatitis C virus; conditions: for Log change in 3′NTR copies relative to 1.0% DMSO (GAPDH normalized): 48 hours; for chimeric APV112 viral infectivity: sensitive genotype 1b NS4B region
# Description: (§1) Inhibition of HCV infectivity by AP0080978 and its analogs (AP0080977, non-active enantiomer; AP0089652, racemate; and AP0080935, an aromatic, non-optically active analog of AP0080978) was assayed by exposing cells with infectious chimeric HCV virions in the presence of the compounds. This was accomplished by use of an HCV cell culture system essentially as described in Pietschmann, T. et al. (2006) 103(19): 7408-13, Proc. Natl. Acad. Sci. USA; and elsewhere. Two viral constructs were utilized to characterize inhibition of viral infectivity (FIG. 4). Construct APV23 (FL-J6/JFH) is a full-length, chimeric, genotype 2a HCV genome containing the HCV core through the NS2 first transmembrane domain coding region from the J6 HCV isolate linked to the second NS2 transmembrane domain NS3 through NS5B coding region of HCV strain JFH-1, as shown in FIG. 4 (i.e. an HCV chimera with the “C3 Junction” described in Pietschmann, T. et al. (2006) Proc. Natl. Acad. Sci. USA 103(19): 7408-13; see page 7409 and FIG. 2A of Pietschmann, T. et al.). Construct APV112 was generated by replacing nucleotides encoding amino acids 53 to 218 of the NS4B gene of the APV23 sequence with a corresponding sequence from a genotype 1b (Con1 strain).
# (§2) Huh7.5 cells were plated at a density of 20,000 cells per well in 96-well plates. The cells were exposed to the chimeric HCV virions at a multiplicity of infection of 0.01. Potential inhibitory compounds were added simultaneously with the chimeric virus. Cells were incubated for 48 hours and then the levels of HCV 3′NTR and GAPDH RNA were quantified by realtime quantitative PCR. Data were analyzed by the comparative Ct method with delta-delta Ct determined relative to 1.0% DMSO. Results in FIGS. 5 and 6 are depicted as log change in 3′NTR copies relative to 1.0% DMSO.
# [2] = tested on: stable genotype 1b subgenomic replicon (Con1 strain); assay: Clone II cells, HCV RNA by blot hybridization normalized to β-actin RNA; format: cell-based; conditions: Hepatitis C virus, 72 h
# Description: Inhibition of HCV replication by compound AP0080978 (enantiomer 2 from Example 1) was also assayed by exposing cells harboring either HCV genotype 1a, HCV genotype 1b, HCV genotype 2a replicons. […] Final DMSO percentage was 1% in a total volume of 1 ml. After a 72 hour treatment period, total RNA was extracted, quantified via RiboGreen™ assay (Invitrogen-Molecular Probes, Eugene, Oreg., USA), and equivalent amounts of RNA were subjected to quantitative RT-PCR to quantify HCV RNA levels. Activity against genotype 1b was re-confirmed using Clone II cells (U.S. Pat. No. 7,049,428) that contain a stable subgenomic replicon (Con1 strain) with a Arg 1164 Gly adaptive mutation that is distinct from the Ser 1179 Ile adaptive mutation present in Clone VI cells. In this assay, cells were seeded into 96-well plates and treated in quadruplicate with varying concentration of compounds for 72 hours. For each replicate culture, HCV RNA levels were measured by blot hybridization and normalized to β-actin RNA levels. Cytotoxicity was measured using an established neutral red dye uptake assay (Korba and Gerin (1992) Antiviral Res 19:55; Okuse et al (2005) Antiviral Res 65: 23). […] Activity and toxicity against genotype 2a was evaluated in Huh7 cells harboring a stable hRluc-containing subgenomic genotype 2a replicon containing sequence from both J6 and JFH1 strains. […]
# [3] = tested on: genotype 1b (Con1 strain) replicon with NS4B S1949Y mutation; assay: S1949Y mutant reporter replicon IVT RNA in Huh7.5 cells; format: cell-based; conditions: Hepatitis C virus
# Text: (§3) To identify nucleotide changes that confer resistance to 80978, replicon RNA was reverse transcribed and amplified from total RNA extracted from 80978-resistant and control Clone A cells. […] One silent mutation at amino acid 1771 was also observed. Each mutation was introduced independently into a stable genotype 1b (Con1 strain) subgenomic reporter replicon plasmid via site-directed mutagenesis. […] The sequence of the wild type NS4B encoding sequence is provided as SEQ ID NO:1, the sequence of the mutated NS4B nucleotide sequence encoding the F1809V mutation is provided as SEQ ID NO:3, and the sequence of the mutated NS4B nucleotide sequence encoding the F1809L mutation is provided as SEQ ID NO:5. The sequence of the wild type NS4B protein is provided as SEQ ID NO:2, the sequence of the mutated NS4B protein with the F1809V mutation is provided as SEQ ID NO:4, and the sequence of the mutated NS4B nucleotide sequence encoding the F1809L mutation is provided as SEQ ID NO:6. […] A differential response was observed between cells electroporated with different replicon RNAs.
# [4] = tested on: chimeric APV23 (FL-J6/JFH) genotype 2a HCV; assay: HCV APV23 viral infectivity assay in Huh7.5 cells, 3′NTR RNA by realtime quantitative PCR; format: cell-based, hepatitis C virus; conditions: FIG. 6, genotype 2a NS4B coding region
# Description: as §1, §2
# [5] = tested on: genotype 2a replicon with the L1809F mutation; assay: Genotype 2a replicon with L1809F mutation; format: cell-based; conditions: Hepatitis C virus
# Description: Since leucine at amino acid 1809 in the genotype 1b replicon was mutated from a phenylalanine residue to a leucine or a valine residue to confer resistance to 80978, and the residue at the corresponding position in the parental genotype 2a replicon is leucine, mutagenesis was carried out to determine whether a phenylalanine at this position in the genotype 2a replicon was sufficient to confer sensitivity to 80978.
# [6] = tested on: genotype 1b (Con1 strain) replicon with silent mutation at amino acid 1771; assay: Silent-mutation reporter replicon IVT RNA in Huh7.5 cells; format: cell-based; conditions: Hepatitis C virus
# Text: as §3
compound,measurement,setting,value
"O=C(NCc1cccs1)c1nn2c(c1Cl)N[C@H](c1ccco1)C[C@@H]2C(F)(F)F (single isomer, unassigned) [Compound 80978]",potency in viral infectivity assays relative to HCV replicon assays,[1],significantly more potent
same,greater log change relative to the log change of the 89652 racemate,"[1]; 0.02 μM, APV112",5.3 fold
same,Log change in 3′NTR copies relative to 1.0% DMSO (GAPDH normalized),"[1]; 0.02 μM, APV112",−0.79
same,Log change in 3′NTR copies relative to 1.0% DMSO (GAPDH normalized),"[1]; 0.07 μM, APV112",−1.29
same,Log change in 3′NTR copies relative to 1.0% DMSO (GAPDH normalized),"[1]; 0.22 μM, APV112",−1.52
same,Log change in 3′NTR copies relative to 1.0% DMSO (GAPDH normalized),"[1]; 0.67 μM, APV112",−1.67
same,Log change in 3′NTR copies relative to 1.0% DMSO (GAPDH normalized),"[1]; 2 μM, APV112",−1.49
same,"potency relative to control HCV inhibitors 2′CMeA, VX-950, cyclosporin A and a-CD81 antibody (JS81)","[1]; FIG. 5, APV112",significantly more potent
same,chimeric APV112 viral infectivity,"[1]; FIG. 5, listed as AP 80978",able to inhibit
same,chimeric APV112 viral infectivity,"[1]; FIG. 5, listed as AP0080978",reduced
same,EC50,[2],7.3 µM
same,EC50,[3],0.41 µM
same,chimeric APV23 viral infectivity,[4]; listed as AP 80978,resistant
same,chimeric APV23 viral infectivity,[4]; listed as AP0080978,unaffected
same,EC50,[5],> 25 µM
same,EC50,[6],0.24 µM
